Test results reported in ChEMBL document CHEMBL1201862, “PubChem BioAssay data set” (2004).
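Method: 48-hour compound exposure of cells in 96-well plates, five concentrations, linear interpolation of endpoints. The concentration for 50% growth inhibition is given as GI50.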 Calls of active or inactive are those of the source. Cut-off read from the data, not from the text of the source: active = GI50 up to about 1.1 µM and inactive = higher.

Columns and labels:
Assay in all cases: NCI anticancer screen, dose series, 48 h
[1] = tested on: UACC-257
[2] = tested on: PC-3
[3] = tested on: NCI-H522
[4] = tested on: T47D
[5] = tested on: SK-OV-3
[6] = tested on: SF-268
[7] = tested on: SNB-19
[8] = tested on: CAKI-1
[9] = tested on: MDA-N
[10] = tested on: MOLT-4
[11] = tested on: OVCAR-8
[12] = tested on: A498
[13] = tested on: NCI-H23
[14] = tested on: MDA-MB-231
[15] = tested on: BT-549
[16] = tested on: HOP-92
[17] = tested on: NCI-H460
[18] = tested on: COLO 205
[19] = tested on: SK-MEL-2
[20] = tested on: LOX IMVI

Measured: GI50

O=C1C(c2c(O)[nH]c3ccccc23)=Nc2ccc(Br)cc21
inactive: [1] 58.6 µM | [2] 14.8 µM | [3] 28.5 µM | [4] 21.8 µM | [5] 18.4 µM | [6] 25.4 µM | [7] 22 µM | [8] 56.2 µM | [9] 99.1 µM | [10] 18.9 µM | [11] 15.1 µM | [12] 4.39 µM | [13] 51.8 µM | [14] 23.3 µM | [15] 28.2 µM | [16] 17.6 µM | [17] 70 µM | [18] > 100 µM | [19] 29.8 µM | [20] 51.8 µM

O=C1CSC(c2cccc(Oc3ccccc3)c2)N1c1ccc(Cl)cc1 (configuration not stated)
inactive: [1] 17.4 µM | [2] 23 µM | [3] 16.3 µM | [4] 10.2 µM | [5] 66.4 µM | [6] 30.3 µM | [7] 54.8 µM | [8] 17.9 µM | [9] 19.4 µM | [10] 13.6 µM | [11] 34.7 µM | [12] 17.5 µM | [13] 25.5 µM | [14] 27.4 µM | [15] 27.7 µM | [16] 13.4 µM | [17] 17.1 µM | [18] 18.5 µM | [19] 18.5 µM | [20] 18 µM

COC(=O)C1=C(O)C(C(=O)OC)[C@]2(O)[C@H](C(=O)OC)[C@H]1C[C@@H](c1ccc(Cl)cc1Cl)[C@H]2C(=O)OC (some centres not stated)
inactive: [1] 10 µM | [2] 8.41 µM | [4] 4.83 µM | [5] 13.2 µM | [6] 7.62 µM | [7] 6.98 µM | [8] 9.68 µM | [9] 2.74 µM | [10] 2.48 µM | [11] 4.81 µM | [12] 11.4 µM | [13] 4.34 µM | [14] 19.5 µM | [15] 6.31 µM | [16] 7.96 µM | [17] 5.64 µM | [18] 8.77 µM | [19] 4.7 µM | [20] 5.92 µM

O=C(O)CCSC1=NCCN1
inactive: [1] 64 µM | [2] > 100 µM | [3] > 100 µM | [4] > 100 µM | [5] > 100 µM | [6] > 100 µM | [7] > 100 µM | [8] > 100 µM | [9] > 100 µM | [11] > 100 µM | [12] > 100 µM | [13] > 100 µM | [14] > 100 µM | [15] > 100 µM | [16] > 100 µM | [17] > 100 µM | [18] > 100 µM | [19] > 100 µM | [20] > 100 µM

CCC(/C=C/c1ccccc1)=N\NC(=S)N/N=C(/C=C/c1ccccc1)CC
inactive: [1] 39.6 µM | [2] 72.9 µM | [3] 30.5 µM | [4] 35.9 µM | [5] 20.1 µM | [6] 12.8 µM | [7] 63 µM | [8] > 100 µM | [9] 58.1 µM | [10] 5.51 µM | [11] 20.4 µM | [12] 20.8 µM | [13] 84.3 µM | [14] > 100 µM | [15] > 100 µM | [16] 83.9 µM | [17] 13.2 µM | [18] 30.8 µM | [20] 21.3 µM

N#CC1=C(N)N(/N=C/c2ccccc2)C(c2ccccc2)C1(C#N)C#N (configuration not stated)
inactive: [1] 9.38 µM | [2] 16.4 µM | [3] 4.38 µM | [4] 6.87 µM | [5] 12.6 µM | [6] 20.7 µM | [7] 23.1 µM | [8] 4.61 µM | [9] 16.1 µM | [10] 2.23 µM | [11] 18.7 µM | [12] 15.9 µM | [13] 17.9 µM | [14] 17 µM | [15] 14.6 µM | [16] 2.98 µM | [18] 2.19 µM | [19] 17.2 µM | [20] 4.14 µM

CCOC(=O)/C=C1\c2ccccc2C(=O)N1CC(=O)OCC
inactive: [1] > 100 µM | [2] > 100 µM | [3] > 100 µM | [4] > 100 µM | [5] > 100 µM | [6] > 100 µM | [7] > 100 µM | [8] > 100 µM | [9] > 100 µM | [10] > 100 µM | [11] > 100 µM | [12] > 100 µM | [13] > 100 µM | [14] > 100 µM | [15] > 100 µM | [16] 39.9 µM | [18] > 100 µM | [19] > 100 µM | [20] 75.5 µM

Cc1n[nH]c(=S)n1/N=C/c1ccc(-c2ccc(Cl)cc2)o1
inactive: [1] > 100 µM | [2] > 100 µM | [3] > 100 µM | [4] > 100 µM | [6] 29.2 µM | [8] > 100 µM | [9] > 100 µM | [10] > 100 µM | [11] 93.1 µM | [12] > 100 µM | [13] 39.6 µM | [14] 73.5 µM | [15] 11.3 µM | [16] 69 µM | [17] > 100 µM | [19] 29.8 µM | [20] > 100 µM

CCOC(=O)c1cc(C2CCN(Cc3ccccc3)C2=O)c(C(=O)/C=C(/C)N)[nH]1 (configuration not stated)
inactive: [1] > 100 µM | [2] > 100 µM | [3] 57.3 µM | [4] > 100 µM | [5] 70.5 µM | [6] > 100 µM | [7] > 100 µM | [8] > 100 µM | [9] > 100 µM | [10] > 100 µM | [11] 65.5 µM | [12] > 100 µM | [13] > 100 µM | [14] > 100 µM | [15] > 100 µM | [16] 25.8 µM | [17] 85.5 µM | [18] > 100 µM | [19] > 100 µM

O=[N+]([O-])c1cc2c(c([N+](=O)[O-])c1)NCc1ccccc1O2
inactive: [1] > 100 µM | [2] > 100 µM | [3] > 100 µM | [4] > 100 µM | [6] > 100 µM | [8] 14.9 µM | [9] > 100 µM | [10] 59.2 µM | [11] 71.1 µM | [12] > 100 µM | [13] > 100 µM | [14] > 100 µM | [15] > 100 µM | [16] > 100 µM | [17] > 100 µM | [18] > 100 µM | [19] 76.6 µM | [20] > 100 µM

COc1ccc2c(CC(=O)O)cc(=O)oc2c1
inactive: [1] > 100 µM | [2] > 100 µM | [3] > 100 µM | [4] > 100 µM | [6] > 100 µM | [7] > 100 µM | [8] > 100 µM | [9] > 100 µM | [10] > 100 µM | [11] > 100 µM | [12] > 100 µM | [13] > 100 µM | [14] > 100 µM | [15] > 100 µM | [16] 86.1 µM | [17] > 100 µM | [18] > 100 µM | [20] > 100 µM
